Patent US8512681B2 (GUMLINK A/S, priority 2005, dated 2013)

Tested on: plaque
Conditions: in chewing gum

SMILES: CC(=O)[O-].CC(=O)[O-].[Zn+2] [zinc acetate]
- effect on plaque in hard-to-reach places (in words): worked in the “hard-to-reach” places with high efficiency
